Test results: US8580829B2 (Boehringer Ingelheim International GmbH, priority 2010, dated 2013)
Read-outs that look alike come from different tables or passages of the source.

Experiments:
[1] = target: T1, recombinant human FLAP protein (Homo sapiens, UniProt P20292); experiment: FLAP binding assay (Scintillation Proximity Assay, displacement of [125I]L-691,831); conditions: recombinant human FLAP membranes, [125I]L-691,831 probe; read-out: FLAP SPA IC50
T1 construct: made in house; host or cells: Sf9 insect cells (100,000 x g membrane fraction)
T1 sequence (P20292 1-161): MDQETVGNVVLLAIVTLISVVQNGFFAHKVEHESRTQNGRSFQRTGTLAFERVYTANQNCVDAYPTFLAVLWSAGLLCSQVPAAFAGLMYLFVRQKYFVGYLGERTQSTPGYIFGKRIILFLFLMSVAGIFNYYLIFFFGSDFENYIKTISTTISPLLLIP
How it was run: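 Membranes came from Sf9 insect cells expressing recombinant human FLAP, collected as the 100,000×g pellet in Tris pH 7.5/MgCl2/EDTA buffer. 5 μg membrane protein was coupled to WGA SPA beads for 1 h.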

[2] = tested on: synthesis of LTB4 in human whole blood; experiment: human whole blood LTB4 production inhibition assay; assay type: cell-based; conditions: heparinized human whole blood, calcimycin 20 μM, read-out: hWB LTB4 IC50
How it was run: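 Heparinized human whole blood was preincubated with compound for 15 min at 37° C, then stimulated with calcimycin (20 μM final, in PBS pH 7.4) for a further 30 min at 37° C. Plasma LTB4 was quantified by antibody-based homogeneous time-resolved fluorescence.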

| IC50 [1] | IC50 ([2]; Homo sapiens) | IC50 [2] | Structure (SMILES) |
| --- | --- | --- | --- |
| 0.85 nM | 73 nM | – | Nc1ncc(-c2ccc(C3(c4noc(-c5ccc(NCCO)nc5)n4)CCC3)cc2)cn1 [Example 180, 2-[5-(3-{1-[4-(2-Amino-pyrimidin-5-yl)-phenyl]-cyclobutyl}-1,2,4-oxadiazol-5-yl)-pyridin-2-ylamino]-ethanol] |
| 1.2 nM | 62 nM | – | CN(CCO)c1ccc(-c2nc(C3(c4ccc(-c5cnc(N)nc5)cc4)CCC3)no2)cn1 [Example 181, 2-{[5-(3-{1-[4-(2-Amino-pyrimidin-5-yl)-phenyl]-cyclobutyl}-1,2,4-oxadiazol-5-yl)-pyridin-2-yl]-methyl-amino}-ethanol] |
| 1.1 nM | 40 nM | – | COCCNc1ccc(-c2nc(C3(c4ccc(-c5cnc(N)nc5)cc4)CCC3)no2)cn1 [Example 182, 5-[4-(1-{5-[6-(2-Methoxy-ethylamino)-pyridin-3-yl]-1,2,4-oxadiazol-3-yl}-cyclobutyl)-phenyl]-pyrimidin-2-ylamine] |
| 0.88 nM | 53 nM | – | CCNc1ccc(-c2nc(C3(c4ccc(-c5cnc(N)nc5)cc4)CCC3)no2)cn1 [Example 183, 5-(4-{1-[5-(6-Ethylamino-pyridin-3-yl)-1,2,4-oxadiazol-3-yl]-cyclobutyl}-phenyl)-pyrimidin-2-ylamine] |
| 2.6 nM | 140 nM | – | Nc1ncc(-c2ccc(C3(c4noc(-c5cc[nH]c(=O)c5)n4)CCC3)cc2)cn1 [Example 184, 4-(3-{1-[4-(2-Amino-pyrimidin-5-yl)-phenyl]-cyclobutyl}-1,2,4-oxadiazol-5-yl)-1H-pyridin-2-one] |
| 7.3 nM | 230 nM | – | Cn1cc(-c2nc(C3(c4ccc(-c5cnc(N)nc5)cc4)CCC3)no2)cnc1=O [Example 185, 5-(3-{1-[4-(2-Amino-pyrimidin-5-yl)-phenyl]-cyclobutyl}-1,2,4-oxadiazol-5-yl)-1-methyl-1H-pyrimidin-2-one] |
| 12 nM | 710 nM | – | N#Cc1ccc(-c2nc(C3(c4ccc(-c5cnc(N)nc5)cc4)CCC3)no2)nc1 [Example 186, 6-(3-{1-[4-(2-Amino-pyrimidin-5-yl)-phenyl]-cyclobutyl}-1,2,4-oxadiazol-5-yl)-nicotinonitrile] |
| 8.4 nM | 3400 nM | – | Nc1ncc(-c2ccc(C3(c4noc(-c5cnc(Cl)cn5)n4)CCC3)cc2)cn1 [Example 187, 5-(4-{1-[5-(5-chloro-pyrazin-2-yl)-1,2,4-oxadiazol-3-yl]-cyclobutyl}-phenyl)-pyrimidin-2-ylamine] |
| 6.2 nM | 81 nM | – | CN(C)C(=O)Cn1cc(-c2nc(C3(c4ccc(-c5cnc(N)nc5)cc4)CCC3)no2)cn1 [Example 188, 2-[4-(3-{1-[4-(2-amino-pyrimidin-5-yl)-phenyl]-cyclobutyl}-1,2,4-oxadiazol-5-yl)-pyrazol-1-yl]-N,N-dimethyl-acetamide] |
| 8.1 nM | 310 nM | – | Nc1ncc(-c2ccc(C3(c4noc(-c5cocn5)n4)CCC3)cc2)cn1 [Example 189, 5-{4-[1-(5-Oxazol-4-yl-1,2,4-oxadiazol-3-yl)-cyclobutyl]-phenyl}-pyrimidin-2-ylamine] |
| 1.2 nM | 27 nM | – | Nc1ncc(-c2ccc(C3(c4noc(-c5ccc6[nH]ncc6c5)n4)CCC3)cc2)cn1 [Example 190, 5-(4-{1-[5-(1H-Indazol-5-yl)-1,2,4-oxadiazol-3-yl]-cyclobutyl}-phenyl)-pyrimidin-2-ylamine] |
| 2.6 nM | > 5000 nM | – | Nc1ncc(-c2ccc(C3(c4noc(-c5cc(Cl)c[nH]c5=O)n4)CCC3)cc2)cn1 [Example 191, 3-(3-{1-[4-(2-Amino-pyrimidin-5-yl)-phenyl]-cyclobutyl}-1,2,4-oxadiazol-5-yl)-5-chloro-1H-pyridin-2-one] |
| 1.7 nM | > 5000 nM | – | Cc1ccc(-c2nc(C3(c4ccc(-c5cnc(N)nc5)cc4)CCC3)no2)c(=O)[nH]1 [Example 192, 3-(3-{1-[4-(2-Amino-pyrimidin-5-yl)-phenyl]-cyclobutyl}-1,2,4-oxadiazol-5-yl)-6-methyl-1H-pyridin-2-one] |
| 1.6 nM | 45 nM | – | Nc1cnc(-c2nc(C3(c4ccc(-c5cnc(N)nc5)cc4)CCC3)no2)cn1 [Example 193, 5-(4-{1-[5-(5-Amino-pyrazin-2-yl)-1,2,4-oxadiazol-3-yl]-cyclobutyl}-phenyl)-pyrimidin-2-ylamine] |
| 3 nM | 85 nM | – | Nc1ncc(-c2ccc(C3(c4noc(-c5cnc(N6CCC[C@H]6CO)cn5)n4)CCC3)cc2)cn1 [Example 194, {(S)-1-[5-(3-{1-[4-(2-Amino-pyrimidin-5-yl)-phenyl]-cyclobutyl}-1,2,4-oxadiazol-5-yl)-pyrazin-2-yl]-pyrrolidin-2-yl}-methanol] |
| 2.9 nM | 140 nM | – | Nc1ncc(-c2ccc(C3(c4noc(-c5cnc(N6CCC[C@@H]6CO)cn5)n4)CCC3)cc2)cn1 [Example 195, {(R)-1-[5-(3-{1-[4-(2-Amino-pyrimidin-5-yl)-phenyl]-cyclobutyl}-1,2,4-oxadiazol-5-yl)-pyrazin-2-yl]-pyrrolidin-2-yl}-methanol] |
| 2.1 nM | 24 nM | – | CNc1cnc(-c2nc(C3(c4ccc(-c5cnc(N)nc5)cc4)CCC3)no2)cn1 [Example 196, 5-(4-{1-[5-(5-Methylamino-pyrazin-2-yl)-1,2,4-oxadiazol-3-yl]-cyclobutyl}-phenyl)-pyrimidin-2-ylamine] |
| 1.5 nM | 48 nM | – | CC(C)Nc1cnc(-c2nc(C3(c4ccc(-c5cnc(N)nc5)cc4)CCC3)no2)cn1 [Example 197, 5-(4-{1-[5-(5-Isopropylamino-pyrazin-2-yl)-1,2,4-oxadiazol-3-yl]-cyclobutyl}-phenyl)-pyrimidin-2-ylamine] |
| 2 nM | 57 nM | – | COCCN(C)c1cnc(-c2nc(C3(c4ccc(-c5cnc(N)nc5)cc4)CCC3)no2)cn1 [Example 198, 5-{4-[1-(5-{5-[(2-Methoxy-ethyl)-methyl-amino]-pyrazin-2-yl}-1,2,4-oxadiazol-3-yl)-cyclobutyl]-phenyl}-pyrimidin-2-ylamine] |
| 1 nM | 42 nM | – | CCOC(=O)CNc1cnc(-c2nc(C3(c4ccc(-c5cnc(N)nc5)cc4)CCC3)no2)cn1 [Example 199, [5-(3-{1-[4-(2-Amino-pyrimidin-5-yl)-phenyl]-cyclobutyl}-1,2,4-oxadiazol-5-yl)-pyrazin-2-ylamino]-acetic acid ethyl ester] |
| 1.5 nM | 67 nM | – | CC(O)CNc1cnc(-c2nc(C3(c4ccc(-c5cnc(N)nc5)cc4)CCC3)no2)cn1 (centres unmarked) [Example 200, 1-[5-(3-{1-[4-(2-Amino-pyrimidin-5-yl)-phenyl]-cyclobutyl}-1,2,4-oxadiazol-5-yl)-pyrazin-2-ylamino]-propan-2-ol] |
| 2.3 nM | 400 nM | – | Nc1ncc(-c2ccc(C3(c4noc(-c5cnc(N6CCNC(=O)C6)cn5)n4)CCC3)cc2)cn1 [Example 201, 5′-(3-{1-[4-(2-Amino-pyrimidin-5-yl)-phenyl]-cyclobutyl}-1,2,4-oxadiazol-5-yl)-5,6-dihydro-4H-1,2′-bipyrazinyl-3-one] |
| 2.6 nM | 70 nM | – | CS(=O)(=O)N1CCN(c2cnc(-c3nc(C4(c5ccc(-c6cnc(N)nc6)cc5)CCC4)no3)cn2)CC1 [Example 202, 5-(4-{1-[5-(4-Methanesulfonyl-3,4,5,6-tetrahydro-2H-1,2′-bipyrazinyl-5′-yl)-1,2,4-oxadiazol-3-yl]-cyclobutyl}-phenyl)-pyrimidin-2-ylamine] |
| 1.9 nM | 130 nM | – | CS(=O)(=O)C1CCN(c2cnc(-c3nc(C4(c5ccc(-c6cnc(N)nc6)cc5)CCC4)no3)cn2)C1 (centres unmarked) [Example 203, 5-[4-(1-{5-[5-(3-Methanesulfonyl-pyrrolidin-1-yl)-pyrazin-2-yl]-1,2,4-oxadiazol-3-yl}-cyclobutyl)-phenyl]-pyrimidin-2-ylamine] |
| 4.5 nM | – | 75 nM | CCNC(=O)Cn1cc(-c2nc(C3(c4ccc(-c5cnc(N)nc5)cc4)CCC3)no2)cn1 [Example 204, 2-[4-(3-{1-[4-(2-Amino-pyrimidin-5-yl)-phenyl]-cyclobutyl}-[1,2,4]oxadiazol-5-yl)-pyrazol-1-yl]-N-ethyl-acetamide] |
| 4.3 nM | – | 38 nM | CCN(C)C(=O)Cn1cc(-c2nc(C3(c4ccc(-c5cnc(N)nc5)cc4)CCC3)no2)cn1 [Example 206, 2-[4-(3-{1-[4-(2-Amino-pyrimidin-5-yl)-phenyl]-cyclobutyl}-[1,2,4]oxadiazol-5-yl)-pyrazol-1-yl]-N-ethyl-N-methyl-acetamide] |
| 2.8 nM | 52 nM | – | CC(C)NC(=O)Cn1cc(-c2nc(C3(c4ccc(-c5cnc(N)nc5)cc4)CCC3)no2)cn1 [Example 208, 2-[4-(3-{1-[4-(2-Amino-pyrimidin-5-yl)-phenyl]-cyclobutyl}-[1,2,4]oxadiazol-5-yl)-pyrazol-1-yl]-N-isopropyl-acetamide] |
| 4.6 nM | 110 nM | – | COC1CCN(C(=O)Cn2cc(-c3nc(C4(c5ccc(-c6cnc(N)nc6)cc5)CCC4)no3)cn2)C1 (centres unmarked) [Example 210, 2-[4-(3-{1-[4-(2-Amino-pyrimidin-5-yl)-phenyl]-cyclobutyl}-[1,2,4]oxadiazol-5-yl)-pyrazol-1-yl]-1-(3-methoxy-pyrrolidin-1-yl)-ethanone] |
